Common to all, as to assay: NCI anticancer screen, dose series, 48 h
The subject of test [1] is SF-295 CNS.
Test [2] concerns SK-MEL-5 melanoma.
The test system of test [3] is MOLT-4 leukemia.
Test [4] has as its system CAKI-1 renal.
Test [5] concerns UACC-62 melanoma.
Test [6] concerns M14 melanoma.
For test [7], the system named is EKVX NSCLC.
For test [8], the system named is MDA-MB-435.
Test [9] has as its system LOX IMVI melanoma.
Test [10] relates to OVCAR-3 ovarian.

Several values for one entry are separate records, joined by “and”; a condition that tells them apart may be missing. Equal entries are not always repeated.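 Exposure lasted 48 hours, with cells grown in 96-well plates and compounds tested at five concentrations. Here, GI50 denotes the concentration required for 50% inhibition of growth. TGI: concentration producing complete growth inhibition.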 Bounds are passed on as bounds.

Among the data in PubChem BioAssay (NCI) are GI50 and TGI values, retold here.

For the molecule `CO/N=C(\C)c1ccc(Nc2cc(-c3ccccc3)nc3ccc(OC)cc23)cc1`, the GI50 in test [1] was 2.02 µM; in [2] it was 1.77 µM; in [3] it was 3.38 µM; in test [4] it was 2.05 µM; in test [5] it was 1.97 µM; in [6] it was 2.35 µM. Further, the GI50 is 3.27 µM in [7] and 1.76 µM in [8]. Moreover, the TGI was found to be 4.82 µM in test [1]; 3.31 µM in test [2]; 25.2 µM in test [3]; 5.16 µM in test [4]; 4.41 µM in [5]; 4.77 µM in [6]. Moreover, the TGI worked out at 8.53 µM in test [7] and 3.46 µM in test [8].
As to `O=C(c1ccccc1)C1OC1c1ccc([N+](=O)[O-])cc1` (centres undefined), the GI50 in test [9] is 1.81 µM; in test [1] it was 4.76 µM; in test [2], 3.81 µM; in [4] it was 2.31 µM; in test [5] it was 11.3 µM; in test [10], 3.84 µM. Further, the values for the GI50 in test [6], in [7] and in [8] were 2.98 µM, 22.8 µM and 2.95 µM, respectively. For the same molecule, the TGI in [9] was determined as 10.8 µM; in test [1], 46 µM; in test [2], 16.7 µM; in [4], 6.56 µM; in test [5] it was 42.5 µM; in test [10] it was 17.8 µM. The TGI in [6] was 12.9 µM; in test [7] it was over 100 µM; in test [8], over 100 µM.
Consider `C=C1CCC2C3(C)COC(c4ccccc4)OC3CCC2(C)C1/C=C/C1=CCOC1=O` (centres undefined), for which the GI50 was 1.7 µM in test [9]; 14.1 µM in [1]; 8.67 µM in test [2]; 2.55 µM in test [3]; 6.82 µM in test [5]; 2.79 µM in [10]. For the same molecule, the GI50 in test [6] is 6.4 µM; in [7], 13.7 µM; in test [8], 2.84 µM. Further, the TGI is 4.25 µM in test [9]; 51.9 µM in test [1]; 21.6 µM in test [2]; 15.1 µM in [3]; 22.9 µM in test [5]; 8.84 µM in [10]. Moreover, the TGI in test [6] is 36.7 µM; in [7], over 100 µM; in test [8], 13.8 µM.
Consider `C/C(=N\NS(=O)(=O)c1ccc(C)cc1)P(=O)(O)O`, for which the TGI in test [9], in test [1], in test [2], in test [4], in test [5] and in test [10] was over 100 µM each time. For the same molecule, the TGI in [6], in [7] and in test [8] was over 100 µM each time.
For `O=Nc1ccc(NO)c2ccccc12`, the GI50 in test [9] is 2.78 µM; in test [1], 14.8 µM; in [2], 11.7 µM; in [3], 26.6 µM; in test [4], 12.2 µM; in test [5], 4 µM. Also, the GI50 in test [10] was 2.37 µM; in [6] it was 16.5 µM; in test [8] it was 1.94 µM. Further, the TGI in [9] was determined as 12.1 µM; in [1], 28.6 µM; in [2], 24.2 µM; in test [3], 88.1 µM; in test [4] it was 25.2 µM; in test [5], 16.4 µM. Also, the TGI in test [10] stood at 12 µM; in test [6], 31.3 µM; in test [8] it was 3.57 µM.
Turning to `COC(=O)c1cc(O)c2cc3c(cc2c1-c1cc(OC)c(OC)c(OC)c1)OCO3`, the GI50 was 1.67 µM in [9]; 0.536 µM in test [1]; 0.891 µM in test [2]; 0.344 µM in test [4]; 1.17 µM in [5]; 0.325 µM in test [10]. Moreover, the values for the GI50 in [6], in test [7] and in test [8] were 0.893 µM, 2.63 µM and 0.277 µM, respectively. For the same molecule, the TGI in test [9] was over 100 µM; in test [1], 5.03 µM; in [2], over 100 µM; in [4], 5.46 µM; in test [5], over 100 µM; in [10], 1.15 µM. Also, the TGI was over 100 µM in test [6], over 100 µM in test [7] and 1.12 µM in [8].
Turning to `CS(=O)(=O)CCc1cccc(C(=O)c2cnn(-c3ccc(F)cc3)c2N)c1`, the GI50 was over 25 µM in [9]; over 25 µM in [1]; over 25 µM in [2]; over 18 µM in [3]; over 25 µM in test [4]; over 25 µM in [5]. Besides, the GI50 in [10], in test [6] and in test [8] was over 25 µM each time. The TGI in test [9], in test [1], in test [2], in test [3], in test [4] and in test [5] was over 25 µM throughout. Also, the TGI in test [10], in test [6] and in test [8] was over 25 µM each time.
`CCC/C(=N\NC(=S)N1CC2CCC(CC2)C1)c1ccccn1`: the GI50 was 0.0199 µM in test [9]; 0.114 µM in [1]; 0.0467 µM in [2]; 1.03 µM in test [4]; 0.0329 µM in test [5]; 0.0246 µM in test [10]. Besides, the values for the GI50 in test [6] and in test [7] were 0.0142 µM and 0.186 µM, respectively. Further, the TGI is 4.31 µM and 2.13 µM in test [9]; 1.2 µM in test [1]; 0.757 µM and 0.483 µM in test [2]; 2.75 µM and 2.69 µM in test [4]; 1.14 µM and 0.642 µM in test [5]; 0.872 µM and 0.622 µM in test [10]. Further, the TGI in [6] is 0.598 µM and 0.207 µM; in test [8], 3.24 µM.
As for `Nc1nc2c(ncn2C2C=CC(CO)C2)c(=O)[nH]1` (centres undefined), the TGI in test [1], in test [2], in test [4], in test [5], in test [10] and in test [6] was over 100 µM in each case. The TGI in test [7] and in [8] was over 100 µM in each case.
For `Oc1ccc(C(c2ccc(O)cc2)c2ccc(O)cc2)cc1`, the TGI in [9] is 38.4 µM; in [1], over 100 µM; in [2], 30.6 µM; in [3], 52.2 µM; in [4], 40 µM; in test [5], 29.8 µM. The TGI in test [7] came to 46.8 µM; in test [8] it was 46.1 µM.
Turning to `Cc1cc(N2CCOCC2)nc(N[C@@H]2CCC[C@H](Nc3ccnc4cc(Cl)ccc34)C2)n1`, the GI50 was 1.71 µM in test [9]; 1.52 µM in test [1]; 1.86 µM in [2]; 2.28 µM in test [3]; 1.82 µM in test [5]; 2.83 µM in test [10]. Besides, the figures for the GI50 in test [6], in [7] and in [8] were 2 µM, 2.86 µM and 1.86 µM, respectively. Also, the TGI in test [9] was 3.3 µM; in test [1] it was 2.97 µM; in [2], 3.27 µM; in test [3] it was 7.19 µM; in [5], 3.43 µM; in [10] it was 8.62 µM. In addition, the figures for the TGI in test [6], in [7] and in test [8] were 3.7 µM, 13.2 µM and 3.39 µM, respectively.
For the molecule `c1ccc(CN2COc3c(ccc4c3OCN(Cc3ccccc3)C4)C2)cc1`, the GI50 in test [9] was 0.825 µM; in test [1], 0.554 µM; in test [2], 0.501 µM; in test [3] it was 0.409 µM; in test [4], 0.22 µM; in [5], 0.937 µM. In addition, the GI50 in test [10] was 0.64 µM; in test [6] it was 0.49 µM; in test [8], 1.72 µM. For the same molecule, the TGI in [9] is over 100 µM; in test [1] it was over 100 µM; in test [2], 2.04 µM; in test [3] it was over 100 µM; in [5], 4.24 µM; in test [10], over 89.8 µM. Besides, the TGI in test [6] and in [8] was over 100 µM throughout.
For `C[As](C)SCC(COC(=O)C(Cl)c1ccccc1)OC(=O)C(Cl)c1ccccc1` (centres undefined), the GI50 in test [1] is 7.79 µM; in test [2], 0.305 µM; in test [3], 0.49 µM; in [4], 0.506 µM; in test [5], 3.19 µM; in [10] it was 0.179 µM. Further, the results for the GI50 in test [6], in test [7] and in [8] were 0.614 µM, 2.44 µM and 0.367 µM, respectively. The TGI in test [1] came to 29.1 µM; in test [2] it was 1.12 µM; in test [4] it was 6.58 µM; in test [5], 52.9 µM; in [10] it was 0.474 µM; in test [6], 15.7 µM. In addition, the TGI was 24.3 µM in [7] and 3.13 µM in [8].
For `Nc1nnnn1CCO`, the TGI in test [9], in [1], in [2], in test [4], in test [5] and in [10] was over 100 µM throughout. Moreover, the TGI in [6], in test [7] and in test [8] was over 100 µM each time.
As to `NCCOCCOCCNc1nc(-c2ccccc2)nc(N2CCN(c3ccccn3)CC2)n1`, the GI50 is 8.3 µM in test [9]; 17.5 µM in [1]; 8.37 µM in [2]; 12.8 µM in [3]; 15.9 µM in test [4]; 6.76 µM in test [5]. For the same molecule, the GI50 was 16.6 µM in test [10], 2.16 µM in [6] and 11.4 µM in test [8]. In addition, the TGI in test [9] was 21.3 µM; in [1] it was 36 µM; in test [2], 20.9 µM; in [3], 29.4 µM; in test [4], 31.5 µM; in test [5] it was 19.4 µM. The TGI turned out to be 30.4 µM in test [10], 5.31 µM in [6] and 24.5 µM in test [8].
For the molecule `CC12CCC3(OCCO3)C(OC(=O)c3ccccc3)=C1CCC21OCCO1` (centres undefined), the TGI in test [9], in test [1], in [2], in test [3], in test [4] and in [5] was over 100 µM throughout. In addition, the TGI in test [10], in test [6] and in test [7] was over 100 µM in each case.
Turning to `CN(C)CCNC(=O)c1cccc(N(C)C(=O)c2ccccc2)c1[N+](=O)[O-]`, the TGI in test [1], in [2], in test [3], in test [4], in test [5] and in test [10] was over 100 µM in each case. Moreover, the TGI in test [6] and in test [8] was over 100 µM throughout.
For the molecule `NCCCCCCCn1c2c(c3ccccc3c1=O)C(=O)c1ccccc1-2`, the GI50 in test [9] is 1.33 µM; in test [1], 1.74 µM; in test [2] it was 1.45 µM; in [4], 1.96 µM; in test [5], 2.01 µM; in [10] it was 1.86 µM. Besides, the GI50 in [6] is 1.68 µM; in [7], 10 µM; in test [8] it was 1.98 µM. In addition, the TGI in [9] is 2.76 µM; in test [1], 4.28 µM; in test [2], 2.77 µM; in test [4], 5.25 µM; in test [5], 3.85 µM; in test [10] it was 4.1 µM. Further, the TGI was found to be 3.06 µM in [6], 21.7 µM in test [7] and 4.06 µM in test [8].
`[N-]=[N+]=NCCCCCC(=O)OC(C(=O)c1ccccc1)c1cccc(OCC(=O)NCCOCCOCCNC(=O)CCCC[C@@H]2SC[C@@H]3NC(=O)N[C@@H]32)c1` (some centres undefined): the GI50 is 18.5 µM in [9]; over 100 µM in test [1]; over 100 µM in [2]; 43.8 µM in test [3]; over 100 µM in [4]; over 100 µM in test [5]. Further, the GI50 in [6] was over 100 µM; in test [7], over 100 µM; in test [8] it was 50.6 µM. Further, the TGI was 44.5 µM in test [9]; over 100 µM in [1]; over 100 µM in [2]; over 100 µM in test [3]; over 100 µM in [4]; over 100 µM in test [5]. Further, the TGI in test [6], in test [7] and in test [8] was over 100 µM in each case.
